# Assay results taken from ChEMBL document CHEMBL1201862, “PubChem BioAssay data set” (2004).
# Calls of active or inactive are those of the source.
# Key:
# [1] = target: 5'-AMP-activated protein kinase catalytic subunit alpha-1 (Homo sapiens, UniProt Q13131); format: functional
# [2] = target: Fibroblast growth factor receptor 1 (Homo sapiens, UniProt P11362); format: functional
# [3] = target: Dual specificity protein kinase CLK4 (Homo sapiens, UniProt Q9HAZ1); format: functional
# [4] = target: Macrophage colony-stimulating factor 1 receptor (Homo sapiens, UniProt P07333); format: functional;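 also: value comes from the Navigating the Kinome screening panel, CSF1R member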
# Chain of Macrophage colony-stimulating factor 1 receptor (P07333 whole entry): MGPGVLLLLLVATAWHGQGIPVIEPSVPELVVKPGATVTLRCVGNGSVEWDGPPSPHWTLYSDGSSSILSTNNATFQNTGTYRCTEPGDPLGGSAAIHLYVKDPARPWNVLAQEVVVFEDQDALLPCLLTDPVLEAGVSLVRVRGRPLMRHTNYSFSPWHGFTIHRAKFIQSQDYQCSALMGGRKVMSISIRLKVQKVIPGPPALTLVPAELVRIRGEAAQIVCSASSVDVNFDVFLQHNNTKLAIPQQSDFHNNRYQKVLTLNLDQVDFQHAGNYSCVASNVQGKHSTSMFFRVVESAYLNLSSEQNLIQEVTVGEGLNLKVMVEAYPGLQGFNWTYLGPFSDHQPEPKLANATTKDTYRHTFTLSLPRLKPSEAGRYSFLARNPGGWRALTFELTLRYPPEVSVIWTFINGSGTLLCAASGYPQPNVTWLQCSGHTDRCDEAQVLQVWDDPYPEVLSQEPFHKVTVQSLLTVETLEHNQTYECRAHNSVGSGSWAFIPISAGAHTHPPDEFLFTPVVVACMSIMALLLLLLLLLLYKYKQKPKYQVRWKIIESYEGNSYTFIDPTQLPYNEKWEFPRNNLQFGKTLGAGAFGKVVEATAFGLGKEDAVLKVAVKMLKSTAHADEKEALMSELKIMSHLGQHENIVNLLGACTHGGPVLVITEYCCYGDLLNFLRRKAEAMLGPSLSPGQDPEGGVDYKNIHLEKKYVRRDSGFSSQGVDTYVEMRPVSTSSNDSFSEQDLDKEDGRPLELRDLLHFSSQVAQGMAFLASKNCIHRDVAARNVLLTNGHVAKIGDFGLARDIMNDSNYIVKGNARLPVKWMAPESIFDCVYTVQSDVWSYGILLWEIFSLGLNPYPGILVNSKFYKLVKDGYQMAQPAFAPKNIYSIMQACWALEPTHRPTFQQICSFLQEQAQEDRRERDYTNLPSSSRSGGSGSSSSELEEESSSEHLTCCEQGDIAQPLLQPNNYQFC
# [5] = target: Cyclin-dependent kinase 5 (Homo sapiens, UniProt Q00535); format: functional;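 also: CDK5 measured as one member of a kinase profiling panel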
# Chain of Cyclin-dependent kinase 5 (Q00535 whole entry): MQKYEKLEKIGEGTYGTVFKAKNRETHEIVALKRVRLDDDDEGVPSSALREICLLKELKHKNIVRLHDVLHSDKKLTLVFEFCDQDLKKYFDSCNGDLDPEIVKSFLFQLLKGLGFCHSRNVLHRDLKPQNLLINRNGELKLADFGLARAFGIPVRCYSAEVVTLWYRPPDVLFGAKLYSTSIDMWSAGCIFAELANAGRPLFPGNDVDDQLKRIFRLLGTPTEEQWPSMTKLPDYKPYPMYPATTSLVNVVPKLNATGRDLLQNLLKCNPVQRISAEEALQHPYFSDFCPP
# [6] = target: Receptor-type tyrosine-protein kinase FLT3 (Homo sapiens, UniProt P36888); format: functional;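 also: FLT3 was tested as one member of a kinome-wide kinase panel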
# Chain of Receptor-type tyrosine-protein kinase FLT3 (P36888 whole entry): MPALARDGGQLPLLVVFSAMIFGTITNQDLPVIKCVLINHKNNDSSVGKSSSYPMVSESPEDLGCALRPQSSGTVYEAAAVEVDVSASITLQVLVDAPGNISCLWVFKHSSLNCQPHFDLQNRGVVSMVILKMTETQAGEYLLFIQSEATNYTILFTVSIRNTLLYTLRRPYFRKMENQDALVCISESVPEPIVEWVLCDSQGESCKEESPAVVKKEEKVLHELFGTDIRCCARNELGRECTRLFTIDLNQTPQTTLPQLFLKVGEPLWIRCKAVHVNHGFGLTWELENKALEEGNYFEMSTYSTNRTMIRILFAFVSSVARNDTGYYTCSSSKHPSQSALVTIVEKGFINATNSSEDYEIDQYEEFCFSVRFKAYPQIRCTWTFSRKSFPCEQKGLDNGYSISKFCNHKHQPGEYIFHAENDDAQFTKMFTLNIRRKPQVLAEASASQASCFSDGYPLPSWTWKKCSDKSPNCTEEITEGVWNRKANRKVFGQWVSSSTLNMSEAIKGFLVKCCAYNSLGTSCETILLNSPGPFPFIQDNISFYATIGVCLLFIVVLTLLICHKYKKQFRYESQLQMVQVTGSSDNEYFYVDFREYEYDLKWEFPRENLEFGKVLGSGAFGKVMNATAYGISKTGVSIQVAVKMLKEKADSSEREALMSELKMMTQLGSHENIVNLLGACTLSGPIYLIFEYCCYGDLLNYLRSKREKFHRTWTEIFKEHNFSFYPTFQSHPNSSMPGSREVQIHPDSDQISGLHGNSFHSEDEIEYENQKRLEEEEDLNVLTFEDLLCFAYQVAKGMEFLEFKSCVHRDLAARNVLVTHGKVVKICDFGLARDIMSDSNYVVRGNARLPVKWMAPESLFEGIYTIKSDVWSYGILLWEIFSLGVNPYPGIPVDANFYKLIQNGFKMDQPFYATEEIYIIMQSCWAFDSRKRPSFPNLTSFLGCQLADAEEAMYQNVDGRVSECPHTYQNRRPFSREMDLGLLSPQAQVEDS
# [7] = target: T1, Sentrin-specific protease 6 (Homo sapiens, UniProt Q9GZR1); format: functional;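 also: Luminescence-based dose-response confirmatory assay of SENP6 inhibition, following up an ultra-high-throughput screen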
# T1 sequence (Q9GZR1 whole entry): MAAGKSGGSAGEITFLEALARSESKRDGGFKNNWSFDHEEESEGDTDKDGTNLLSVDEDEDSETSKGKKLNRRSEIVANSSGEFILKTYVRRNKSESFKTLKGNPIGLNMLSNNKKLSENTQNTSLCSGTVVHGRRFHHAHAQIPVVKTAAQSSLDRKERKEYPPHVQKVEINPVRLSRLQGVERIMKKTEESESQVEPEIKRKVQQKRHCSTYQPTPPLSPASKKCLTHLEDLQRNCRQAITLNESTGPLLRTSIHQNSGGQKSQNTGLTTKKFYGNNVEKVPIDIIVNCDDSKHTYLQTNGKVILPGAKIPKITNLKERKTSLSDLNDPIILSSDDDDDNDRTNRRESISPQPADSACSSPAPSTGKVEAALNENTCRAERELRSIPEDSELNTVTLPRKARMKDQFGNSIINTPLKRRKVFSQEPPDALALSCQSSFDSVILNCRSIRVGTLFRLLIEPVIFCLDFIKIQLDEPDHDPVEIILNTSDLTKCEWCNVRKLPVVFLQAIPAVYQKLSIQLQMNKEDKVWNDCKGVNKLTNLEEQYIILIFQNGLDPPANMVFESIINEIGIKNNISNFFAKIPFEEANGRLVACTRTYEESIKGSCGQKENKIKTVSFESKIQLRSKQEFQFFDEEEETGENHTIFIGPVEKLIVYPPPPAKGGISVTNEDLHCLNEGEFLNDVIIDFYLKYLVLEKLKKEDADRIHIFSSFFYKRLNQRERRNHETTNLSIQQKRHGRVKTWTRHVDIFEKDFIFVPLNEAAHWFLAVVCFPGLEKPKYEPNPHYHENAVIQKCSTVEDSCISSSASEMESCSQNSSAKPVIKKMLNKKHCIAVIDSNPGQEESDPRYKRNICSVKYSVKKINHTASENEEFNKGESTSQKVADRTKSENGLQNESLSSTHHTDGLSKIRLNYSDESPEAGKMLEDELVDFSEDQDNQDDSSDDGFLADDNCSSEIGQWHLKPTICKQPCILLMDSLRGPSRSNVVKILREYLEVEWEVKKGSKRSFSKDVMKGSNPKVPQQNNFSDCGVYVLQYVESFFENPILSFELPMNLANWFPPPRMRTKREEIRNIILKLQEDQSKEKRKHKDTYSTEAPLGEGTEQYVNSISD
# [8] = target: T2, Tyrosyl-DNA phosphodiesterase 2 (Homo sapiens, UniProt O95551); test: human TDP2 enzyme inhibitors, dose response, biochemical, epi absorbance, IC50 (AID 743297)
# T2 sequence (O95551 whole entry): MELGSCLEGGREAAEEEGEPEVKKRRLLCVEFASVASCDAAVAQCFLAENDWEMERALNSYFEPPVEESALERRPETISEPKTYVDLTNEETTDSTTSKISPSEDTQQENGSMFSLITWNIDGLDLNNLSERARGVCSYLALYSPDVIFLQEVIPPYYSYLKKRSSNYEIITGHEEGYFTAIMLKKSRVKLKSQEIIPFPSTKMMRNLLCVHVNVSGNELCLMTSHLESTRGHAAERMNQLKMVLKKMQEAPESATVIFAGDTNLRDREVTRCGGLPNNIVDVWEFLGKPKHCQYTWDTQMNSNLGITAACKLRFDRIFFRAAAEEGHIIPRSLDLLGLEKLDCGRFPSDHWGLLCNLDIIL
# [9] = Counterscreen for AddAB inhibitors: absorbance-based bacterial cell-based high throughput dose response assay for inhibitors of bacterial viability. [Related pubchem assays (depositor defined):AID435030, AID449728, AID449731, AID488942, AID488955, AID488956]; format: functional
# [10] = target: T3, Serine/threonine-protein phosphatase (Candida dubliniensis (strain CD36 / CBS 7987 / NCPF 3949 / NRRLY-17841) (Yeast), UniProt B9W6M3); test: calcineurin pathway inhibitors in yeast reporter, dose response, S. cerevisiae, CDRE-lacZ, luminescence, secondary (AID 2388); format: functional, cell-based;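 also: yeast reporter cells carrying a calcineurin-responsive lacZ construct stimulated with calcium chloride; luminescent beta-galactosidase reporter signal in whole cells rather than isolated phosphatase activity; potency for inhibition where a drop in reporter signal means calcineurin blockade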
# T3 sequence (B9W6M3 whole entry): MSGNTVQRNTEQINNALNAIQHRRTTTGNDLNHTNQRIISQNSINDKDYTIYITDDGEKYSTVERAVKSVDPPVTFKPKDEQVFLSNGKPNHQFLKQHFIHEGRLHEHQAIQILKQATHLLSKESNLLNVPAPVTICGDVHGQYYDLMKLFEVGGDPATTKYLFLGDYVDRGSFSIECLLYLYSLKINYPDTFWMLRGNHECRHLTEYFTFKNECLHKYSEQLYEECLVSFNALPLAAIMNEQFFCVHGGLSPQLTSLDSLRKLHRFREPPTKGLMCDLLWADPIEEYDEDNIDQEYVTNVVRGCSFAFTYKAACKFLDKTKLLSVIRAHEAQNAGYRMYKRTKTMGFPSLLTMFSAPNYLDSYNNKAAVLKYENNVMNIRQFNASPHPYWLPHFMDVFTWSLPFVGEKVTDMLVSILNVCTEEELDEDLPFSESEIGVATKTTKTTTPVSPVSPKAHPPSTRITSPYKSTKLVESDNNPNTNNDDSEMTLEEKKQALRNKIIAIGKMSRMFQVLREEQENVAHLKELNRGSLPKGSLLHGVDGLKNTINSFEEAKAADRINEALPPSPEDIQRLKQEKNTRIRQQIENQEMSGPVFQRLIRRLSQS
# Chain of 5'-AMP-activated protein kinase catalytic subunit alpha-1 (Q13131 whole entry): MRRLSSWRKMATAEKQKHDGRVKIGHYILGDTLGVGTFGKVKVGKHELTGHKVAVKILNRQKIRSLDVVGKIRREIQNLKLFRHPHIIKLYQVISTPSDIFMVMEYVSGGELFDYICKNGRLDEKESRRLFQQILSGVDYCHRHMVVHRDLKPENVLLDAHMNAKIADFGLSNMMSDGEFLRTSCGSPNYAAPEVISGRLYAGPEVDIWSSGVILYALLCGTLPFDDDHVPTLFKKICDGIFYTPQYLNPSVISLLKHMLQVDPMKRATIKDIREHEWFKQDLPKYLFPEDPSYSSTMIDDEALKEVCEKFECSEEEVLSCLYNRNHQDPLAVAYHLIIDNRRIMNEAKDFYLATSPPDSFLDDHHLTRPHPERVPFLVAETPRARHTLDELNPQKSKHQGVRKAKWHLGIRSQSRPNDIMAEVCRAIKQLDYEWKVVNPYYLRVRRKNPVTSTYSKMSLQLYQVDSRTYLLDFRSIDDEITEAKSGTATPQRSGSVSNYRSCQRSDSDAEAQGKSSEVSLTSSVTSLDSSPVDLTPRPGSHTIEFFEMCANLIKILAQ
# Chain of Dual specificity protein kinase CLK4 (Q9HAZ1 whole entry): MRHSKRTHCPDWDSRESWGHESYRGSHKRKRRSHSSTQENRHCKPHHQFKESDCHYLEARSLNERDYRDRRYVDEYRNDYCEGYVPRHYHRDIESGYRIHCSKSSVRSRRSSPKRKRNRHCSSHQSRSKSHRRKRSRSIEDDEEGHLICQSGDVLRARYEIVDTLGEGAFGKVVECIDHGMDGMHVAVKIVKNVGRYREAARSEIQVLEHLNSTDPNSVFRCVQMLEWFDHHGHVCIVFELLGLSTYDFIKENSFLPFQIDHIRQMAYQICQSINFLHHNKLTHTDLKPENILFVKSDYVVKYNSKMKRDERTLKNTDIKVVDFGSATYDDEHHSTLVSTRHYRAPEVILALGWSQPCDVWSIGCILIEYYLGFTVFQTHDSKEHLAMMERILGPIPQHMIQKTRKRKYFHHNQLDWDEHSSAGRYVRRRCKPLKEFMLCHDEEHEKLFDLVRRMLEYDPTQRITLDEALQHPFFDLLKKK
# Chain of Fibroblast growth factor receptor 1 (P11362 whole entry): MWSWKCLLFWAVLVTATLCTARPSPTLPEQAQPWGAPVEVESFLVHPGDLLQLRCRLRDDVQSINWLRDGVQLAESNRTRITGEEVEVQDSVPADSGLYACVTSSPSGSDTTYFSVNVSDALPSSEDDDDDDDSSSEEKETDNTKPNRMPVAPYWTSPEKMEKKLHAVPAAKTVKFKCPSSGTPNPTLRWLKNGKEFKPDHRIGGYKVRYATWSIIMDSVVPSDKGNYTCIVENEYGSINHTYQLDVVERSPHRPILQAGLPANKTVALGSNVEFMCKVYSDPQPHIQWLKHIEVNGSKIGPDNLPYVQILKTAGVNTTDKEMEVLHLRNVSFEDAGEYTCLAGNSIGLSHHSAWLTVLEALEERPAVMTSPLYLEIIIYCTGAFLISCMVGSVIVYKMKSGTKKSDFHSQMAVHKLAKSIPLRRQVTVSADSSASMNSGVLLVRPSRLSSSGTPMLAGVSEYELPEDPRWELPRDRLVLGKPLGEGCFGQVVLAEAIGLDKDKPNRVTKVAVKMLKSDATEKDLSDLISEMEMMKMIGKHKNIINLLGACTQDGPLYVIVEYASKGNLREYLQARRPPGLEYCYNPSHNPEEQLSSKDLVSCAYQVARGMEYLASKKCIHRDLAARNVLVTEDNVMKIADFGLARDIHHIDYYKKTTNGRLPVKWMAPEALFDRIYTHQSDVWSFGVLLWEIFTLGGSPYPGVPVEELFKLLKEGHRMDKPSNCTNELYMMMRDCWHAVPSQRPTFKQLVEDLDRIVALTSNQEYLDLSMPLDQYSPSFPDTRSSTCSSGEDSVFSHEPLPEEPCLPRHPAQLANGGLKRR
smiles,measurement,setting,value
O=C1NC(=O)C(c2c[nH]c3ccccc23)=C1c1nc(N2CCNCC2)nc2ccccc12,Ki,[1],0.2 µM (active)
same,Ki,[2],> 2.51 µM (inactive)
same,Ki,[3],> 1.58 µM (inactive)
same,Ki,[4],> 2.51 µM (inactive)
same,Ki,[5],0.794 µM (active)
same,Ki,[6],> 3.16 µM (inactive)
COc1ccccc1N(/N=C1\Sc2ccccc2C1=O)C(C)=O,IC50,[7],4.28 µM (active)
same,IC50,[8],20 µM (inactive)
CCCC(=O)NC(c1ccc(N(C)C)cc1)c1ccc2cccnc2c1O (configuration not stated),IC50,[9],> 119 µM (inactive)
same,EC50,[10],> 180 µM (inactive)
CCc1cc[n+](C2=C([N-]S(=O)(=O)c3cccs3)C(=O)c3ccccc3C2=O)cc1,IC50,[7],3.57 µM (active)
O=C(NC1=C(NC2CCS(=O)(=O)C2)C(=O)c2ccccc2C1=O)c1ccccc1 (configuration not stated),IC50,[8],28.3 µM (inactive)
